Data from patent US8188059B2, “Compounds and methods for modulating expression of GCGR” (Isis Pharmaceuticals, Inc., priority 2006, dated 2012).
Strand notation (5' to 3'): a small letter for the sugar, then the base; units joined by * are phosphorothioate-linked, units joined directly phosphodiester-linked; [ ] holds rarer units or linkages, { } end groups; capitals alone tell only the bases. e = 2'-O-(2-methoxyethyl) (MOE); k = constrained ethyl (cEt); [5mC] = 5-methylcytosine; d = 2'-deoxy (DNA)

Tests used:
[1] = test system: monkey GCGR mRNA; assay: Antisense inhibition of GCGR in primary monkey hepatocytes, 25-200 nM (Example 21, Table 80); format: cell-based; conditions: relative to untreated control cells
Procedure: Additional short antisense compounds targeted to a GCGR nucleic acid were tested for their effects on monkey GCGR mRNA in vitro. Cultured primary monkey hepatocytes were treated as described herein with 25, 50, 100 or 200 nM of short antisense compound. After the treatment period, RNA was isolated from the cells and GCGR mRNA levels were measured by quantitative real-time PCR, as described herein. GCGR mRNA levels were adjusted according to total RNA content as measured by RIBOGREEN®. Results are presented in Table 80 as percent reduction in GCGR mRNA, relative to untreated control cells.

[2] = test system: GCGR mRNA; assay: Antisense inhibition of GCGR in HepG2 cells, 25-200 nM (Example 21, Table 79); format: cell-based, human; conditions: for percent reduction in GCGR mRNA: HepG2 cells, relative to untreated control cells
Procedure: Short antisense compounds targeted to a GCGR nucleic acid were tested for their effects on GCGR mRNA in vitro.
Cultured HepG2 cells at a density of 10000 cells per well in a 96-well plate were treated as described herein with 25, 50, 100 or 200 nM of antisense oligonucleotide. After the treatment period, RNA was isolated from the cells and GCGR mRNA levels were measured by quantitative real-time PCR, as described herein. GCGR mRNA levels were adjusted according to total RNA content as measured by RIBOGREEN®. Results are presented as percent reduction in GCGR mRNA, relative to untreated control cells.

[3] = test system: rat SGLT2 mRNA; assay: Rat SGLT2 mRNA levels in kidney, 1-10-1 gapmers at 250 nmol/kg, Sprague-Dawley rats (Example 14, Table 66); format: in vivo; conditions: 250 nmol/kg i.p. twice per week for three weeks; Sprague-Dawley rats; kidney
Procedure: The effect of the above 1-10-1gapmers (see Table 64 above) on rat SGLT2 mRNA levels. Data are taken from four experiments in which male Sprague-Dawley rats (170-200 g) were dosed twice per week for three weeks with 250 nmol/kg given by intraperitoneal injection. Rats were sacrificed 48 hours following last administration and evaluated for SGLT2 mRNA levels in kidney. Target levels were determined by RT, real-time PCR as described by other examples herein. PCR results were normalized to an internal ISIS control.

[4] = test system: mouse SGLT2 mRNA; assay: Mouse SGLT2 mRNA levels in kidney, MOE versus Methyleneoxy BNA gapmers, Balb/c mice (Example 15, Table 69); format: in vivo
Procedure: The effect of ISIS 379692 1-10-1 MOE gapmer and ISIS 388625 2-8-2 MOE gapmer are compared with the effect of ISIS 392170 1-10-1 Methyleneoxy BNA Gapmer and ISIS 392173 2-8-2 Methyleneoxy BNA Gapmer (see Table 69) on mouse SGLT2 mRNA levels in vivo. Data are taken from three experiments in which male 6-week old Balb/c mice were dosed twice per week for three weeks with 5, 25 and 125 nmol/kg of either the ISIS 379692 1-10-1 MOE gapmer or the ISIS 388625 2-8-2 MOE gapmer given by intraperitoneal injection. Mice were sacrificed 48 hours following last administration and evaluated for SGLT2 mRNA levels in kidney. Target levels were determined by RT, real-time PCR as described by other examples herein. PCR results were normalized to an internal ISIS control. The data are expressed as percent change (“+” indicates an increase, “−” indicates a decrease) relative to saline treated animals and are illustrated in Table 69.

[5] = test system: rat SGLT2 mRNA; assay: Rat SGLT2 mRNA levels in kidney, 1-10-1 and 1-10-2 MOE gapmers, Sprague-Dawley rats (Example 13, Table 63); format: in vivo
From the text: 1-10-1 and 1-10-2 MOE gapmer antisense compounds, provided in Table 62, were designed to target different regions of the mouse or rat SGLT2 RNA. All short antisense compounds in Table 62 are chimeric oligonucleotides (“gapmers”) either 12 or 13 nucleotides in length, composed of a central “gap” segment consisting of ten 2′-deoxynucleotides, which are flanked on the 5′ side by a one-nucleoside “wing” and on the 3′ side by a two or one-nucleotide “wing”. […] All cytidine residues are 5-methylcytidines.
The short antisense compounds were analyzed for their effect on rat SGLT2 mRNA levels. Data are ranges taken from three experiments in which Male Sprague-Dawley rats (170-200 g) were dosed twice per week for three weeks with 450, 150 or 50 nmol/kg of either a 1-10-1 or 1-10-2 MOE gapmer given by intraperitoneal injection. Rats were sacrificed 48 hours following last administration and evaluated for SGLT2 mRNA levels in kidney. Target levels were determined by RT, real-time PCR as described by other examples herein. PCR results were normalized to an internal ISIS control.

[6] = test system: mouse SGLT2 mRNA; assay: Mouse SGLT2 mRNA levels in kidney, additional 1-10-1 and 2-8-2 MOE gapmers, Balb/c mice (Example 15, Table 68); format: in vivo
Procedure: 1-10-1 and 2-8-2 MOE gapmer short antisense compounds were designed to target different regions of the mouse SGLT2 RNA but have complementarity across species. […] All cytidine residues are 5-methylcytidines.
The short antisense compounds were analyzed for their effect on mouse SGLT2 mRNA levels in vivo. Data was taken from three experiments in which male 6-week old Balb/c mice were dosed twice per week for three weeks with 0.5, 0.1, or 0.02 umol/kg of either a 1-10-1 or 2-8-2 MOE gapmer given by intraperitoneal injection. Mice were sacrificed 48 hours following last administration and evaluated for SGLT2 levels in kidney. Target levels were determined by RT, real-time PCR as described by other examples herein. PCR results were normalized to an internal ISIS control.

[7] = test system: mouse SGLT2 mRNA; assay: Mouse SGLT2 mRNA levels in kidney, 1-10-1 MOE gapmers, Balb/c mice (Example 14, Table 65); format: in vivo
Procedure: The short antisense compounds were analyzed for their effect on mouse SGLT2 mRNA levels. Data was taken from three experiments in which Male 6-week old Balb/c mice were dosed twice per week for two weeks with 450, 150, or 50 nmol/kg of one of the above 1-10-1 MOE gapmers given by intraperitoneal injection. Mice were sacrificed 48 hours following last administration and evaluated for SGLT2 mRNA levels in kidney. Target levels were determined by RT, real-time PCR as described by other examples herein. PCR results were normalized to an internal ISIS control.

[8] = test system: rat SGLT2 mRNA; assay: Rat SGLT2 mRNA levels in kidney, ISIS 379692 and ISIS 388625, Sprague-Dawley rats (Example 15, Table 70); format: in vivo; conditions: i.p. twice per week for three weeks
Procedure: The effect of ISIS 379692 1-10-1 MOE gapmer and ISIS 388625 MOE 2-8-2 gapmer (see Table 70) on rat SGLT2 mRNA levels in vivo. […] Rats were sacrificed 48 hours following last administration and evaluated for SGLT2 levels in kidney. Target levels were determined by RT, real-time PCR as described by other examples herein. PCR results were normalized to an internal ISIS control.

[9] = test system: ApoB mRNA; assay: ApoB mRNA in liver of Balb/c mice, single i.p. dose 8, 4, 2 or 1 μmol/kg, with ED50 (Example 28, Table 92); format: in vivo, mouse; conditions: ApoB mRNA in liver, single i.p. administration
Procedure: The short antisense compounds tested were ISIS 387462 and ISIS 398296. Each dose group consisted of four animals. A 5-10-5 MOE gapmer was used for a control treatment. Mice were sacrificed approximately 48 hours following the final dose. Liver tissue was collected for RNA isolation, and blood was collected for serum chemistry analyses. ApoB mRNA levels were measured by real-time PCR as described herein. ApoB mRNA levels were normalized to RNA levels as determined by RIBOGREEN, and are presented in Table 92 as percent inhibition relative to ApoB mRNA levels in saline-treated control animals.
At the 8 umol/kg dose, ApoB inhibition by the short antisense compounds was greater than observed with a 5-10-5 MOE gapmer at an equivalent dose. […] Triglycerides were reduced at the highest dose.

[10] = 50 nmol/kg i.p. twice per week for three weeks
[11] = 150 nmol/kg i.p. twice per week for three weeks
[12] = 450 nmol/kg i.p. twice per week for three weeks
[13] = 0.02 umol/kg i.p. twice per week for three weeks
[14] = 0.1 umol/kg i.p. twice per week for three weeks
[15] = 0.5 umol/kg i.p. twice per week for three weeks
[16] = 50 nmol/kg i.p. twice per week for two weeks
[17] = 150 nmol/kg i.p. twice per week for two weeks
[18] = 450 nmol/kg i.p. twice per week for two weeks

Substance	% change in SGLT2 expression relative to saline [3]	% change in SGLT2 expression relative to saline [5, 10]	% change in SGLT2 expression relative to saline [5, 11]	% change in SGLT2 expression relative to saline [5, 12]	% change in SGLT2 expression relative to saline [6, 13]	% change in SGLT2 expression relative to saline [6, 14]	% change in SGLT2 expression relative to saline [6, 15]	% change in SGLT2 expression relative to saline [7, 16]	% change in SGLT2 expression relative to saline [7, 17]	% change in SGLT2 expression relative to saline [7, 18]	also measured
327161 (antisense eA*eG*e[5mC]*dT*dG*d[5mC]*dT*dG*dT*dA*d[5mC]*eA*eT*e[5mC]) [compound 327161]	–	–	–	–	–	–	–	–	–	–	percent reduction in GCGR mRNA ([1]; 25 nM): −19; percent reduction in GCGR mRNA ([1]; 50 nM): −33; percent reduction in GCGR mRNA ([1]; 100 nM): −55; percent reduction in GCGR mRNA ([1]; 200 nM): −54; percent reduction in GCGR mRNA ([2]; 25 nM): −36; percent reduction in GCGR mRNA ([2]; 50 nM): −30; percent reduction in GCGR mRNA ([2]; 100 nM): −33; percent reduction in GCGR mRNA ([2]; 200 nM): −64
ISIS 327161: GCGR; 3-10-3 MOE gapmer (antisense eA*eG*e[5mC]*dT*dG*d[5mC]*dT*dG*dT*dA*d[5mC]*eA*eT*e[5mC])	–	–	–	–	–	–	–	–	–	–	GCGR mRNA ([2]; HepG2 cells, 25, 50, 100 or 200 nM): reduced GCGR mRNA in a dose-dependent manner
ISIS 379692: SGLT2; 1-10-1 MOE gapmer (antisense eT*dG*dT*dT*d[5mC]*d[5mC]*dA*dG*d[5mC]*d[5mC]*d[5mC]*eA)	−85%	−80%	−85%	−90%	−55%	−75%	−85%	−52.5%	−70%	−80%	SGLT2 mRNA, percent change relative to saline treated animals ([4]; 5 nmol/kg i.p. twice per week for three weeks): −7 percent change; SGLT2 mRNA, percent change relative to saline treated animals ([4]; 25 nmol/kg i.p. twice per week for three weeks): −46 percent change; SGLT2 mRNA, percent change relative to saline treated animals ([4]; 125 nmol/kg i.p. twice per week for three weeks): −58 percent change; % change in SGLT2 expression relative to saline ([8]; dose 3.125 umol/kg (head)): +30%; % change in SGLT2 expression relative to saline ([8]; dose 12.5 umol/kg (head)): −15%; % change in SGLT2 expression relative to saline ([8]; dose 50 umol/kg (head)): −65%; % change in SGLT2 expression relative to saline ([8]; dose 200 umol/kg (head)): −80%
ISIS 379699: SGLT2; GGCATGAGCTTC 1-10-1 MOE (antisense eG*dG*d[5mC]*dA*dT*dG*dA*dG*d[5mC]*dT*dT*e[5mC])	−75%	−60%	−75%	−83%	−30%	−60%	−75%	−42.5%	−62.5%	−80%	–
ISIS 379702: targeted to SGLT2 (antisense eG*d[5mC]*dA*d[5mC]*dA*d[5mC]*dA*dG*d[5mC]*dT*dG*e[5mC])	−25%	–	–	–	−40%	−65%	−70%	−52.5%	−72.5%	−75%	–
ISIS 398296: ApoB; GGTACATGGAAGTC 2-10-2 (6′S)-6′-methyl-Methyleneoxy BNA Unmodified Cytosines (antisense kG*kG*dT*dA*dC*dA*dT*dG*dG*dA*dA*dG*kT*kC)	–	–	–	–	–	–	–	–	–	–	ED50 [9]: 8.7 mg/kg
